A word on the Kd: it is the concentration at which binding is half-saturated. A higher Kd goes with lower affinity. One may read the Ki as the equilibrium dissociation constant of an inhibitor or competing ligand from its target.

In publication PMC3272785 (2011) one finds Kd and Ki data, which are given here for one molecule.

Test [1] deals with T1, yeast cytosine deaminase (yCD) (Saccharomyces cerevisiae, UniProt Q12178).
T1 sequence (Q12178 6-158): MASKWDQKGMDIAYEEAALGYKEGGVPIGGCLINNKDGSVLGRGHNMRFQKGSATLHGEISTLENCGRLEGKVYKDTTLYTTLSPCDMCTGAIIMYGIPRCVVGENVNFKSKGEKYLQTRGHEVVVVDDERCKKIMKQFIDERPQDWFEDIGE
The test can be described thus: fluorometric titration. It counts as binding.

The target of test [2] is T2, yeast cytosine deaminase (yCD) (Saccharomyces cerevisiae, UniProt Q12178, E64D).
T2 sequence (Q12178 6-158 E64D): T1 sequence (Q12178 6-158)
Briefly: radiometric 5FC deamination inhibition assay. It counts as biochemical.

`Oc1ncc(F)cn1` [5FPy, 5-fluoro-1H-pyrimidin-2-one] returned a Kd in test [1] of 0.65 ± 0.08 µM. The molecule also yielded a Ki in test [2] of 1060 ± 60 µM.
